Reference: US20040038369A1, “Airway-specific trypsin-like enzymes and method of using the same” (priority 2000, published 2004)

Assays:
[1] = Enzymatic activity of mammalian ASTs transiently expressed in 293 EBNA cells; type: biochemical
Method: A forward primer and a reverse primer were prepared on gene sequences encoding the N-terminal and C-terminal of each mammalian AST, and a cDNA encoding the full-length AST was prepared by a PCR amplification using the forward primer, the reverse primer, Pyrobest DNA polymerase (produced by Takara Shuzo Co.), and an airway cDNA as a template. On the other hand, a product obtained by cleaving pcDNA3 (produced by Invitrogen Corp.) with restriction enzymes NruI and KpnI, and the promoter domain of Elongation Factor-1a (EF-1 a) from human genome were amplified by a PCR using a forward primer: […] and a reverse primer: […]. […]
Human fetal kidney-originated 293 EBNA cells (Invitrogen Corp.) were cultured in a 10 cm schale, and the about 5.8×10^6 cells were transfected with 28 μg of each expression plasmid prepared in (1) in 56 μL of LipofectAMINE 2000 (produced by GibcoBRL Corp.) according to an appended manual. […] 40 μL of the above-described assay sample was mixed with 20 μL of a synthetic substrate solution (a solution obtained by diluting a 10 mM Boc-Phe-Ser-Arg-MCA DMSO (dimethyl sulfoxide) solution with the buffer solution for the AST activity assay 50 times), and the increase of the fluorescence intensity per minute was assayed (fluorescence wavelength: 460 nm, excitation wavelength: 380 nm) to determine the enzymatic activity.

[2] = system: HB-EGF on surface of H292 cell membrane; assay: Surface antigen analysis (FACS) of HB-EGF on NCI-H292 cell membrane; type: cell-based, human
Method: NCI-H292 cells (purchased from ATCC) were cultured on a 10 cm dish in 10% FCS-containing RPMI-1640 until to reach a confluent state, subjected to the replacement of the culture medium by RPMI-1640 containing 0.1% of BSA, and further cultured for 24 hours. The cultured cells were washed with PBS, treated and floated in PBS containing 5 mM of EDTA at 37° C. for five minutes, and then suspended in 0.1%BSA-containing RPMI-1640 in a density of 1.0×10^7 cells/mL.
The above-described cell suspension and 0.1% BSA-containing RPMI-1640 containing HAST in a double concentration (600 mU/mL) were mixed with each other in equivalent amounts, respectively, and reacted with each other at 37° C. for 30 minutes (final cell concentration: 5.0×10^6 cells/mL, final HAST concentration: 300 mU/mL). The reaction solution was mixed with ice-cooled 1% FCS-containing PBS in a volume of 5 times that of the reaction solution to stop the reaction, and the treated solution was then supplied for a surface antigen analysis.
The cells subjected to the prescribed treatments were suspended in 1% FCS-containing PBS in a density of 1.0×10^7 cells/mL. 100 μL of the prepared cell suspension was mixed with a primary antigen (EGF back ground dyeing: 1 μg of normal mouse IgG1 (produced by R & D Corp.), EGF dyeing: 1 μg of an anti-EGF mouse monoclonal antibody (produced by R & D Corp.), HB-EGF back ground dyeing: free from the primary antigen, HB-EGF dyeing: 2 μg of an anti-HB-EGF goat polyclonal antibody (produced by R & D Corp.)) and reacted on ice for 30 minutes. The reaction product was once washed with 5 mL of 1% FCS-containing PBS, mixed with 2 μg of a secondary antigen (EGF back ground dyeing and EGF dyeing: FITC conjugated F(ab′)2 fragment to mouse IgG (produced by Dako Corp.), HB-EGF back ground dyeing and HB-EGF dyeing: Swine Anti-Goat Ig's Fluorescein Conjugate (produced by KPL Corp.)), and then reacted on ice for 30 minutes. The reaction solution was once washed with 5 mL of 1% FCS-containing PBS, and then mixed with Cell Fix (produced by Becton Dickinson Corp.) to immobilize the cells. The expression of the surface antigen was assayed with FACS Calibur (produced by Becton Dickinson Corp.) and analyzed with Cell Quest (produced by Becton Dickinson Corp.). Average fluorescence intensities were shown in the next table as the indicators of expression intensities.
HAST (600 mU/mL) was reacted with leupeptin (10 μM) or BB1101 (5 μM) in 0.1% BSA-containing RPMI-1640 on ice for 30 minutes, and the reaction solution was mixed with the equivalent amount of a cell suspension preliminarily treated with leupeptin (10 μM) or BB1101 (5 μM) at 37° C. for 30 minutes, and further treated at 37° C. for 30 minutes (final HAST concentration: 300 mU/mL, final leupeptin concentration: 10 μM, final BB1101 concentration: 5 μM, final cell concentration: 5.0×10^6 cells/mL). The reaction solution was mixed with ice-cooled 1% FCS-containing PBS in an amount of five times that of the reaction solution to stop the reaction, and then supplied for the surface antigen analysis.
The cells subjected to the prescribed treatments were suspended in 1% FCS-containing PBS in a density of 1.0×10^7 cells/mL. […]

HAST: human airway-specific trypsin-like enzyme; propeptide moiety bound to trypsin-like protein moiety via a disulfide bond
Cell lysate Fluorescence intensity ratio (Human:100) ([1]; 293 EBNA cell lysate, three days after transfection): 100 | Sup Fluorescence intensity ratio (Human:100) ([1]; 293 EBNA, Sup): 100 | cleavage of proHB-EGF on the surfaces of the cell membranes ([2]; HAST 300 mU/mL): cleaved | HB-EGF expression intensity on the surfaces of the cell membranes (average fluorescence intensity) ([2]; HAST 300 mU/mL, 37° C., 30 minutes, Back ground 4.5, PBS 8.72): 6.94 | HB-EGF expression intensity on the surfaces of the cell membranes (average fluorescence intensity) ([2]; inhibitor experiment, HAST 300 mU/mL alone, Back ground 5.58, PBS 8.61): 6.26
